According to patent US9150566B2, “2-(1,2,3-triazol-2-yl)benzamide and 3-(1,2,3-triazol-2-YL)picolinamide derivatives as orexin receptor antagonists” (ACTELION PHARMACEUTICALS LTD., priority 2011, dated 2015):
Where two headings read alike, the source gives them in different places.

Experiments:
CYP3A4 = CYP3A4 (Homo sapiens (Human), UniProt P08684); test: CYP3A4 inhibition assay (human liver microsomes, testosterone 6β-hydroxylation); conditions: read-out: CYP3A4 IC50, 40 μM testosterone
Method: The CYP3A4 inhibition assay was performed using human liver microsomes and testosterone 6β-hydroxylation as a P450 isoform-specific marker. In a total volume of 150 μL, ^14C-testosterone at a final concentration of 40 μM in a 100 mM phosphate buffer (pH 7.4) was incubated in a 96-well plate with 0.3 mg/mL of human liver microsomes in an Eppendorf thermomixer at 37° C. and 400 rpm. […] The reaction was initiated by addition of 15 μL of the NADPH-regenerating system containing the glucose-6-phosphate dehydrogenase and terminated after 7 min with a 75 μL-aliquot of methanol. After centrifugation at 465 g and 4° C. for 20 min, a 50 μL-aliquot of the supernatant was submitted to HPLC according to the method described below. The total concentration of DMSO in the assay including controls without inhibitor was 1%.
Nicardipine was run in parallel as a reference inhibitor of CYP3A4 activity at final concentrations of 0, 0.1, 0.5, 1.0, 5.0, 10, 25, and 50 μM. Stock solutions thereof were prepared in DMSO.
The chromatographic separation of testosterone and 6β-hydroxytestosterone was achieved on a Phenomenex Luna C18(2) column (5 μm, 2.0×10 mm) at RT with a flow rate of 0.6 mL/min. Mobile phases consisted of 1% aqueous formic acid (phase A) and methanol (phase B) using a gradient method with 0.9 min total run time.
The quantification of 6β-hydroxytestosterone was carried out using a quadrupole mass spectrometer equipped with an ionspray interface operating in positive ion mode. The parameters of the mass detector were set as follows: capillary voltage 5 kV, auxiliary gas 40 psi, collision gas 3 mTorr, and transfer capillary temperature 420° C.

human orexin-2 receptor = human orexin-2 receptor (Homo sapiens (Human), UniProt O43614); test: In vitro intracellular calcium measurements (FLIPR), antagonistic activity on orexin-2 receptor; assay type: cell-based; conditions: read-out: IC50 OX2
human orexin-2 receptor, sequence (O43614 whole entry): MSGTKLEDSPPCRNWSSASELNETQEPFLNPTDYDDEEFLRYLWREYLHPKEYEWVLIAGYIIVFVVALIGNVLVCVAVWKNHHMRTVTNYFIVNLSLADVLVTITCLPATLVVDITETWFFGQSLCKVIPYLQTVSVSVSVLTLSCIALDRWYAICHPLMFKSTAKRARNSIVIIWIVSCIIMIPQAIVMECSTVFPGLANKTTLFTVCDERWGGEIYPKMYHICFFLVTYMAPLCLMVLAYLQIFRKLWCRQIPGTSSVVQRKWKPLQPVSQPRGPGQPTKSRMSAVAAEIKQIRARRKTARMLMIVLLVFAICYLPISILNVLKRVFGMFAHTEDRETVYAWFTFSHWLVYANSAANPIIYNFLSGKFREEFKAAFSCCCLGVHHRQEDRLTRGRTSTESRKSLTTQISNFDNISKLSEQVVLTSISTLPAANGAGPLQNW
Outline: (§1)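 CHO cells expressing human orexin-1 or orexin-2 receptor were seeded overnight, preincubated with antagonist for 120 min, then stimulated with agonist in a FLIPR Tetra.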

human orexin-1 receptor = human orexin-1 receptor (Homo sapiens (Human), UniProt O43613); test: In vitro intracellular calcium measurements (FLIPR), antagonistic activity on orexin-1 receptor; assay type: cell-based; conditions: read-out: IC50 OX1
human orexin-1 receptor, sequence (O43613 whole entry): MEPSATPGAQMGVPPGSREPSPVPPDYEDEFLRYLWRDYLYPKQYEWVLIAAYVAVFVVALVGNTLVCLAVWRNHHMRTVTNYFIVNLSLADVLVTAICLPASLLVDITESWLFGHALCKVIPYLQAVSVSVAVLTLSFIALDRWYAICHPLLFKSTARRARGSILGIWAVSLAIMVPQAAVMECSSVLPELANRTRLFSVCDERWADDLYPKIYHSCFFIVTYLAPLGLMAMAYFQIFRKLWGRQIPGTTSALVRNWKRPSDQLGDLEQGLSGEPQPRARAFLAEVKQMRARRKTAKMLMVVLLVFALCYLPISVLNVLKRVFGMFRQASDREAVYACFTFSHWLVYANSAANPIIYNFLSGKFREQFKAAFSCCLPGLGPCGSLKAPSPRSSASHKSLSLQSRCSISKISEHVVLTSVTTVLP
Outline: as §1

[1] = CHO cells expressing human orexin-2 receptor, FLIPR, 3 nM orexin-A agonist, 120 min antagonist incubation, geometric mean if determined several times
[2] = CHO cells expressing human orexin-1 receptor, FLIPR, 3 nM orexin-A agonist, 120 min antagonist incubation, geometric mean if determined several times

CYP3A4, sequence (P08684 whole entry): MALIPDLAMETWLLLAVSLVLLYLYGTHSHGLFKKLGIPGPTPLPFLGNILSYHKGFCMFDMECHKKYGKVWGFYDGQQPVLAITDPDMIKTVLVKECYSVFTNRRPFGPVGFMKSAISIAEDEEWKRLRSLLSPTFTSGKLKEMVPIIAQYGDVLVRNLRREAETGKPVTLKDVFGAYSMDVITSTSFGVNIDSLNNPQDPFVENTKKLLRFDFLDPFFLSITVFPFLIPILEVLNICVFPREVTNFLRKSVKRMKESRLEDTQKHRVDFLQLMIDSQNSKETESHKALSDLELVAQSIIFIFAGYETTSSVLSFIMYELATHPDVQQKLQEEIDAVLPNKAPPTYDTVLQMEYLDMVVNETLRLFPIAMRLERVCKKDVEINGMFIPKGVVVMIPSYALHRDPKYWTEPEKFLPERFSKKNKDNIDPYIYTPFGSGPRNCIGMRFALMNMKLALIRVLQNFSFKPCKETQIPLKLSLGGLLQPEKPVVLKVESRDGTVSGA

IC50 (CYP3A4) | IC50 (human orexin-2 receptor; [1]) | IC50 (human orexin-1 receptor; [2]) | SMILES | IC50 (human orexin-2 receptor) | IC50 (human orexin-1 receptor)
21000 nM | 475 nM | 12 nM | O=C(c1ccccc1-n1nccn1)N1CCOC[C@H]1Cc1ccc(Cl)c(-c2ncon2)c1 [Example 90, [(R)-3-(4-Chloro-3-[1,2,4]oxadiazol-3-yl-benzyl)-morpholin-4-yl]-(2-[1,2,3]triazol-2-yl-phenyl)-methanone] |  | 
17000 nM | 612 nM | 10 nM | O=C(c1cc(F)c(F)cc1-n1nccn1)N1CCOC[C@H]1Cc1cccc(-n2nccn2)c1 [Example 91, (4,5-Difluoro-2-[1,2,3]triazol-2-yl-phenyl)-[(R)-3-(3-[1,2,3]triazol-2-yl-benzyl)-morpholin-4-yl]-methanone] |  | 
49000 nM | 1200 nM | 11 nM | COc1ccc(C(=O)N2CCOC[C@H]2Cc2cc(-n3nccn3)ccc2F)c(-n2nccn2)c1 [Example 95, [(R)-3-(2-Fluoro-5-[1,2,3]triazol-2-yl-benzyl)-morpholin-4-yl]-(4-methoxy-2-[1,2,3]triazol-2-yl-phenyl)-methanone] |  | 
9700 nM | 24 nM | 1 nM | Cc1cc(C(=O)N2C[C@@H](C)OC[C@H]2Cc2cccc(-n3nccn3)c2)c(-n2nccn2)cc1C [Example 98, (4,5-Dimethyl-2-[1,2,3]triazol-2-yl-phenyl)-[(2R,5R)-2-methyl-5-(3-[1,2,3]triazol-2-yl-benzyl)-morpholin-4-yl]-methanone] |  | 
9600 nM | 1220 nM | 5 nM | Cc1ccc(C(=O)N2C[C@@H](C)OC[C@H]2Cc2cccc(-n3nccn3)c2)c(-n2nccn2)c1C [Example 99, (3,4-Dimethyl-2-[1,2,3]triazol-2-yl-phenyl)-[(2R,5R)-2-methyl-5-(3-[1,2,3]triazol-2-yl-benzyl)-morpholin-4-yl]-methanone] |  | 
17000 nM | 1510 nM | 25 nM | Cc1ccc(-n2nccn2)c(C(=O)N2CCOC[C@@]2(C)Cc2cccc(-n3nccn3)c2)c1 [Example 102, [(R)-3-Methyl-3-(3-[1,2,3]triazol-2-yl-benzyl)-morpholin-4-yl]-(5-methyl-2-[1,2,3]triazol-2-yl-phenyl)-methanone] |  | 

Continued, compound first:

SMILES | IC50 (CYP3A4) | IC50 (human orexin-2 receptor; [1]) | IC50 (human orexin-1 receptor; [2]) | IC50 (human orexin-2 receptor) | IC50 (human orexin-1 receptor)
COc1ccc(C(=O)N2CCOC[C@H]2Cc2cccc(-n3nccn3)c2)c(-n2nccn2)c1 [Example 93, (4-Methoxy-2-[1,2,3]triazol-2-yl-phenyl)-[(R)-3-(3-[1,2,3]triazol-2-yl-benzyl)-morpholin-4-yl]-methanone] | > 50000 nM |  |  | 2090 nM | 5 nM
Cc1ccc(C(=O)N2C[C@H](C)OC[C@H]2Cc2cccc(-n3nccn3)c2)c(-n2nccn2)c1 [Example 96, [(2S,5R)-2-Methyl-5-(3-[1,2,3]triazol-2-yl-benzyl)-morpholin-4-yl]-(4-methyl-2-[1,2,3]triazol-2-yl-phenyl)-methanone] | 28000 nM |  |  | 390 nM | 10 nM
Cc1cccc(C(=O)N2C[C@@H](C)OC[C@H]2Cc2cccc(-n3nccn3)c2)c1-n1nccn1 [Example 97, [(2R,5R)-2-Methyl-5-(3-[1,2,3]triazol-2-yl-benzyl)-morpholin-4-yl]-(3-methyl-2-[1,2,3]triazol-2-yl-phenyl)-methanone] | 11000 nM | 237 nM | 3 nM |  | 
Cc1ccc(C(=O)N2C[C@@H](C)OC[C@H]2Cc2cccc(-n3nccn3)c2)c(-n2nccn2)c1 [Example 101, [(2R,5R)-2-Methyl-5-(3-[1,2,3]triazol-2-yl-benzyl)-morpholin-4-yl]-(4-methyl-2-[1,2,3]triazol-2-yl-phenyl)-methanone] | 9700 nM |  |  | 155 nM | 2 nM
Cc1ccc(C(=O)N2CCOC[C@H]2Cc2cc(Cl)cc(-n3nccn3)c2)c(-n2nccn2)c1 [Example 105, [(R)-3-(3-Chloro-5-[1,2,3]triazol-2-yl-benzyl)-morpholin-4-yl]-(4-methyl-2-[1,2,3]triazol-2-yl-phenyl)-methanone] | 21000 nM | 101 nM |  |  | 2 nM
